Measurements from patent US20050239754A1 (priority 2003, published 2005).

Test: Pseudo-titration in water with IRA-400(OH) anion exchange resin, samples assayed by HPLC
Type: physicochemical
Procedure: 60 g of Amberlite IRA400 (OH) resin was prewashed with 4.7 percent (by weight) ammonium hydroxide (50 ml of 28 percent ammonium hydroxide, 250 ml deionized water), followed by extensive washing with deionized water. The final conductivity was 6.1 μS.
Samples containing about 0.9 g of S-[2-[(1-Iminoethyl)amino]ethyl]-2-methyl-L-cysteine di-hydrochloride in 142 ml HCl/water solution, were concentrated on a rotary evaporator at 60° C. to an oil. To the oil, diluted to 60 ml with deionized water, was added aliquots of 0.5 g of washed anion exchange resin while stirring. At five minutes after each aliquot of resin was added, the solution pH was measured and a sample removed through a syringe filter. A total of 9 g of anion exchange resin was added. The final pH was 10.8. The resin was removed by filtration and the filtrate was concentrated to an oil by rotary evaporation at 60° C.; no solids formed. The starting material, final filtrate and all intermediate samples were assayed by HPLC and ion chromatography for chloride.
The diamond (solid line) is pH and square (dashed line) is S-[2-[(1-Iminoethyl)amino]ethyl]-2-methyl-L-cysteine (percent initial, by ion chromatography). […] The diamond (solid line) is pH and triangle (broken line) is chloride (by ion chromatography).
These curves are not true titration curves since samples were withdrawn during the progress of the reaction, and since true equilibrium was not attained before the increments of resin were added. Nevertheless, the graphs of FIG. 2 and FIG. 3 illustrate the expected trends. As resin is added to the S-[2-[(1-Iminoethyl)amino]ethyl]-2-methyl-L-cysteine solution the pH rises with change in slope around pH's of 2, 9 and 11. The pH's of slower rise are representative of the pK's of the carboxylic acid, amine and amidine functional groups, respectively. Above a pH of 10, the S-[2-[(1-Iminoethyl)amino]ethyl]-2-methyl-L-cysteine concentration in solution decreases. At this point, the S-[2-[(1-Iminoethyl)amino]ethyl]-2 methyl-L-cysteine is gaining a net negative charge and is binding to the resin. […] The final chloride content is approximately 0.04 mol equivalents.

[1] = pseudo-titration with anion exchange resin in water, not true titration curves

SMILES: CC(=N)NCCSC[C@](C)(N)C(=O)O [S-[2-[(1-Iminoethyl)amino]ethyl]-2-methyl-L-cysteine]
- pH of slower rise representative of the pK of the amidine [1]: ~11
- pH of slower rise representative of the pK of the amine [1]: ~9
- pH of slower rise representative of the pK of the carboxylic acid [1]: ~2
- Degradation by HPLC assay of the titration samples (samples up to final pH 10.8): no degradation
